One test deals with human M2 receptor (Homo sapiens (Human), UniProt P08172). Put plainly: In vitro M2 functional assay (intracellular calcium, FLiPR Tetra). The format is cell-based. The following applies: for M2 EC50 / EC50: CHOK1 cells stably expressing human M2 receptor and Gα16, calcium flux, No Response = no significant response of calcium flux indicative of agonism; for activation at 10 µM: response at 10 μM compound, relative to an EC100 concentration of acetylcholine, read-out: M2 % RE @ 10 μM. On the procedure: (§1) In Vitro M4 &M2 Functional Assay
Sequence of human M2 receptor (P08172 whole entry): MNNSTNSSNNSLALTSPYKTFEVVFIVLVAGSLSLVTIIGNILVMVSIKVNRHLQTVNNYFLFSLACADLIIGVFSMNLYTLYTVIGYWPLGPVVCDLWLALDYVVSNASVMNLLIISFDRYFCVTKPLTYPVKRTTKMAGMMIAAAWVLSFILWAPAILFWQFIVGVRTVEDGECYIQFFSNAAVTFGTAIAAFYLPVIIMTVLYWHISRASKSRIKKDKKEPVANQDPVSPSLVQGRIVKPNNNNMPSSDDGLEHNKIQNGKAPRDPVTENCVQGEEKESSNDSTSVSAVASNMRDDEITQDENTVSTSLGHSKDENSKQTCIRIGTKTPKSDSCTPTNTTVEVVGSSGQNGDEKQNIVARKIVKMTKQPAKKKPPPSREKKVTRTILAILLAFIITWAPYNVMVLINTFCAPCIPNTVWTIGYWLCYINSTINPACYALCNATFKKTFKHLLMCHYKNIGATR
(§2) The functional activity of compounds at the M4 and M2 receptors was determined by measuring changes in the level of intracellular calcium ions caused by signalling cascades mediated by the receptor. Intracellular Calcium levels were measured using a calcium sensitive fluorescent dye, calcium 5 (Molecular Devices) The changes in fluorescence were monitored by a fluorescent imager, FLiPR Tetra (Molecular devices). Increases in intracellular calcium were readily detected upon activation of both receptors by the muscarinic receptor agonist Acetylcholine.
(§3) CHOK1 cells stably expressing human M4 or M2 receptor and co-expressing the accessory g-protein Gα16 were routinely grown as monolayers in Hams-F12 medium (Invitrogen) supplemented with 10% foetal bovine serum (FBS) (Hyclone), 500 ug/mL Geneticin and 250 ug/mL zeocin (both invitrogen) in 5% CO2 at 37° C. Once confluent is cells cryopreserved by freezing at −186° C. in freezing solution (90% FBS 10% DMSO) (Sigma-Aldrich Co.). Twenty-four hours prior to testing cells resuscitated and freezing media removed via centrifugation, cells then seeded in a black walled clear bottom 384 well plates (Corning) at a density of 15,000 cells/well in Hams F12 media supplemented with 10% FBS. On the day of assay, growth media was removed and replaced with 63 μl of Calcium 5 dye solution (Molecular Devices) in assay buffer (HBSS, 20 mM HEPES, 0.1% BSA, 1 mM Probenecid pH7.4 (Sigma-Aldrich Co.)) per well (each vial of Calcium 5 resuspended in 27 mL of assay buffer). Cells were then incubated for 45 minutes at 37° C., 5% CO2. Compound was serially diluted in DMSO (log/half log) before being diluted 1:20 with assay buffer. 7 μl of compound diluted in assay buffer was then added to cells on FLiPR tetra and fluorescence intensity measured for 5 minutes. EC50 values for compounds were determined from ten point half log scale dose-response studies and represent the concentration of compound required to […] maximal response. Curves were generated using the average of duplicate wells for each data point and analyzed using non-linear regression of four parameter dose response. Percentage Relative efficacy (RE) to an EC100 concentration of acetylcholine was reported for all compounds. The results are set out in Table 3 below in which the term “No Response” means that there was no significant response of calcium flux in the assay indicative of agonism.
In general terms: A change in cytosolic calcium serves as a functional read-out for many receptors and channels.

In the next test the target is human M4 receptor (Homo sapiens (Human), UniProt P08173). Description: In vitro M4 functional assay (intracellular calcium, FLiPR Tetra). The format is cell-based. The following applies: for EC50: CHOK1 cells stably expressing human M4 receptor and Gα16, calcium flux; for Emax: relative efficacy to an EC100 concentration of acetylcholine, read-out: M4 % RE. On the procedure:
as §1, §2, §3

As usually defined, the EC50 is the concentration giving half of the maximal effect.

Sequence of human M4 receptor (P08173 whole entry): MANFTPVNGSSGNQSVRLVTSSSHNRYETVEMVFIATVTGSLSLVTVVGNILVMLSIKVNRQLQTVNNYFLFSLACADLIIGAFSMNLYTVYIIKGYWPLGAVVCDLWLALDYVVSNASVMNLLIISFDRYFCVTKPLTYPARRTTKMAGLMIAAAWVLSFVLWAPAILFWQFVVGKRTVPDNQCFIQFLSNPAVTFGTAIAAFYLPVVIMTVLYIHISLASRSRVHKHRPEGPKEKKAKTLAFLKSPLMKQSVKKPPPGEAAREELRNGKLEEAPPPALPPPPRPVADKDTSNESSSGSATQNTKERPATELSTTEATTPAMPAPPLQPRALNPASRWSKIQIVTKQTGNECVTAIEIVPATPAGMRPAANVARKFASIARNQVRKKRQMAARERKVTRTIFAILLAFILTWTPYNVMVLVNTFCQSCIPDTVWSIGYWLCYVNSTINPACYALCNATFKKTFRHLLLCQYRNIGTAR

For the compound `CCOC(=O)N1CCCC(N2CCC(c3cncc(N(C)C)n3)CC2)CC1` (stereo not shown) [Example 50, Ethyl 4-{4-[6-(dimethylamino)pyrazin-2-yl]piperidin-1-yl}azepane-1-carboxylate], the “M2 EC50” value at human M2 receptor is given as “No Response”. On human M4 receptor, the EC50 stood at 460 nM and the Emax came out at 50%.
Regarding `CCOC(=O)N1CCCC(N2CCC(c3cncnc3OC)CC2)CC1` (stereo not shown) [Example 51, Ethyl 4-[4-(4-methoxypyrimidin-5-yl)piperidin-1-yl]azepane-1-carboxylate], the “M2 EC50” value on human M2 receptor is “No Response”. Also, on human M4 receptor, the EC50 was found to be 310 nM and the Emax worked out at 69%.
As to `CCOC(=O)N1CCCC(N2CCC(c3cccnc3OC(F)F)CC2)CC1` (stereo not shown) [Example 52, Ethyl 4-{4-[2-(difluoromethoxy)pyridin-3-yl]piperidin-1-yl}azepane-1-carboxylate], at human M2 receptor, the EC50 was above 10000 nM and the activation at 10 µM amounted to 25%. Besides, on human M4 receptor, the EC50 came out at 10 nM and the Emax came to 96%.
As to `CCOC(=O)N1CCCC(N2CCC(c3cccnc3OCC)CC2)CC1` (stereo not shown) [Example 53, Ethyl 4-[4-(2-ethoxypyridin-3-yl)piperidin-1-yl]azepane-1-carboxylate], on human M2 receptor, the “M2 EC50” value is reported as “No Response”. Also, on human M4 receptor, the EC50 stood at 60 nM and the Emax worked out at 80%.
For the compound `CCOC(=O)N1CCCC(N2CCC(c3cccnc3OCc3cc(C)no3)CC2)CC1` (stereo not shown) [Example 54, Ethyl 4-(4-{2-[(3-methyl-1,2-oxazol-5-yl)methoxy]pyridin-3-yl}piperidin-1-yl)azepane-1-carboxylate], the “M2 EC50” value at human M2 receptor is given as “No Response”. For the same compound, at human M4 receptor, the EC50 amounted to 20 nM and the Emax was found to be 94%.
Take `CCOC(=O)N1CCCC(N2CCC(c3cccnc3OC(C)C)CC2)CC1` (stereo not shown) [Example 55, Ethyl 4-{4-[2-(propan-2-yloxy)pyridin-3-yl]piperidin-1-yl}azepane-1-carboxylate]: on human M2 receptor, the 50% effective concentration (EC50) was above 10000 nM and the activation at 10 µM stood at 26%. Besides, at human M4 receptor, the EC50 is 130 nM and the Emax was 67%.
As for `CCOC(=O)N1CCCC(N2CCC(c3cccn(CC#N)c3=O)CC2)CC1` (stereo not shown) [Example 56, Ethyl 4-{4-[1-(cyanomethyl)-2-oxo-1,2-dihydropyridin-3-yl]piperidin-1-yl}azepane-1-carboxylate], the “M2 EC50” value at human M2 receptor is listed as “No Response”. In addition, at human M4 receptor, the EC50 was 2350 nM and the Emax amounted to 24%.
Turning to `CCOC(=O)N1CCCC(N2CCC(c3cccn(CC)c3=O)CC2)CC1` (stereo not shown) [Example 57, Ethyl 4-[4-(1-ethyl-2-oxo-1,2-dihydropyridin-3-yl)piperidin-1-yl]azepane-1-carboxylate], the “M2 EC50” value on human M2 receptor was “No Response”. For the same compound, at human M4 receptor, the EC50 was found to be 890 nM and the Emax was 37%.
Take `CCOC(=O)N1CCCC(N2CCC(c3cc(Cl)cnc3OC)CC2)CC1` (stereo not shown) [Example 58, Ethyl 4-[4-(5-chloro-2-methoxypyridin-3-yl)piperidin-1-yl]azepane-1-carboxylate]: the “M2 EC50” value on human M2 receptor is recorded as “No Response”. At human M4 receptor, the EC50 came to 2 nM and the Emax was found to be 95%.
Turning to `CCOC(=O)N1CCCC(N2CCC(c3nc(C)cnc3C)CC2)CC1` (stereo not shown) [Example 59, Ethyl 4-[4-(3,6-dimethylpyrazin-2-yl)piperidin-1-yl]azepane-1-carboxylate], at human M2 receptor, the “M2 EC50” value is “No Response”. Also, at human M4 receptor, the EC50 turned out to be 530 nM and the Emax is 30%.
Taken in the same sequence, the figures for `CCOC(=O)N1CCCC(N2CCC(c3nc(C(F)(F)F)ncc3OC)CC2)CC1` (stereo not shown) [Example 60, Ethyl 4-{4-[5-methoxy-2-(trifluoromethyl)pyrimidin-4-yl]piperidin-1-yl}azepane-1-carboxylate] were “No Response”, 180 nM and 68%.
In the case of `CCOC(=O)N1CCCC(N2CCC(c3cccnc3-c3cnn(C(C)C)c3)CC2)CC1` (stereo not shown) [Example 61, Ethyl 4-(4-{2-[1-(propan-2-yl)-1H-pyrazol-4-yl]pyridin-3-yl}piperidin-1-yl)azepane-1-carboxylate], the “M2 EC50” value at human M2 receptor is “No Response”. Moreover, at human M4 receptor, the EC50 turned out to be 150 nM and the Emax worked out at 66%.
In the case of `CCOC(=O)N1CCCC(N2CCC(c3cccnc3NC)CC2)CC1` (stereo not shown) [Example 62, Ethyl 4-{4-[2-(methylamino)pyridin-3-yl]piperidin-1-yl}azepane-1-carboxylate], the “M2 EC50” value on human M2 receptor is on record as “No Response”. On human M4 receptor, the EC50 is 360 nM and the Emax came to 53%.
Turning to `CCOC(=O)N1CCCC(N2CCC(c3nc(C)ncc3OC)CC2)CC1` (stereo not shown) [Example 63, Ethyl 4-[4-(5-methoxy-2-methylpyrimidin-4-yl)piperidin-1-yl]azepane-1-carboxylate], at human M2 receptor, the “M2 EC50” value is given as “No Response”. Also, on human M4 receptor, the concentration giving a half-maximal response (EC50) was 560 nM and the Emax turned out to be 43%.
In the same order, the values of `CCOC(=O)N1CCCC(N2CCC(c3cccnc3-c3ccnn3C)CC2)CC1` (stereo not shown) [Example 64, Ethyl 4-{4-[2-(1-methyl-1H-pyrazol-5-yl)pyridin-3-yl]piperidin-1-yl}azepane-1-carboxylate] are “No Response”, 3140 nM and 35%.
As for `CCOC(=O)N1CCCC(N2CCC(c3cccnc3N(C)C)CC2)CC1` (stereo not shown) [Example 65, Ethyl 4-{4-[2-(dimethylamino)pyridin-3-yl]piperidin-1-yl}azepane-1-carboxylate], the “M2 EC50” value at human M2 receptor is given as “No Response”. Moreover, on human M4 receptor, the EC50 was determined as 190 nM and the Emax turned out to be 87%.
For `CCOC(=O)N1CCCC(N2CCC(c3cccnc3C3CC3)CC2)CC1` (stereo not shown) [Example 66, Ethyl 4-[4-(2-cyclopropylpyridin-3-yl)piperidin-1-yl]azepane-1-carboxylate], the “M2 EC50” value on human M2 receptor is recorded as “No Response”. For the same compound, on human M4 receptor, the EC50 turned out to be 120 nM and the Emax was 84%.
As for `CCOC(=O)N1CCCC(N2CCC(c3cccnc3NCC3CC3)CC2)CC1` (stereo not shown) [Example 67, Ethyl 4-(4-{2-[(cyclopropylmethyl)amino]pyridin-3-yl}piperidin-1-yl)azepane-1-carboxylate], the “M2 EC50” value on human M2 receptor is “No Response”. For the same compound, on human M4 receptor, the EC50 turned out to be 990 nM and the Emax is 37%.
Consider `CCOC(=O)N1CCC(N2CCC(c3nccs3)CC2)CC1` [Example 68, Ethyl 4-[4-(1,3-thiazol-2-yl)piperidin-1-yl]piperidine-1-carboxylate], for which, at human M2 receptor, the “M2 EC50” value is reported as “No Response”. For the same compound, on human M4 receptor, the EC50 amounted to 540 nM and the Emax was determined as 45%.
With `CCOC(=O)N1CCCC(N2CCC(n3nccc3C(F)(F)F)CC2)CC1` (stereo not shown) [Example 69, Ethyl 4-{4-[5-(trifluoromethyl)-1H-pyrazol-1-yl]piperidin-1-yl}azepane-1-carboxylate], on human M2 receptor, the EC50 is above 10000 nM and the activation at 10 µM came out at 21%. Further, at human M4 receptor, the EC50 was 630 nM and the Emax is 63%.
Consider `CCOC(=O)N1CCCC(N2CCC(c3cccnc3CC)CC2)CC1` (stereo not shown) [Example 70, Ethyl 4-[4-(2-ethylpyridin-3-yl)piperidin-1-yl]azepane-1-carboxylate], for which the “M2 EC50” value at human M2 receptor is “No Response”. Besides, at human M4 receptor, the EC50 came to 210 nM and the Emax was found to be 64%.
Taken in the same sequence, the figures for `CCOC(=O)N1CCCC(N2CCC(c3nnccc3OC)CC2)CC1` (stereo not shown) [Example 71, Ethyl 4-[4-(4-methoxypyridazin-3-yl)piperidin-1-yl]azepane-1-carboxylate] were “No Response”, 1050 nM and 45%.
`CCOC(=O)N1CCC(N2CCC(c3cccc(OCC)n3)CC2)CC1` [Example 72, Ethyl 4-[4-(6-ethoxypyridin-2-yl)piperidin-1-yl]piperidine-1-carboxylate]: on human M2 receptor, the EC50 is 2020 nM. Further, the “M2 % RE” value on human M2 receptor (relative efficacy to an EC100 concentration of acetylcholine) was 20%. Further, on human M4 receptor, the 50% effective concentration (EC50) was 270 nM and the Emax came to 63%.
In the case of `CCOC(=O)N1CCCC(N2CCC(c3cccnc3-c3cnn(C)c3)CC2)CC1` (stereo not shown) [Example 73, Ethyl 4-{4-[2-(1-methyl-1H-pyrazol-4-yl)pyridin-3-yl]piperidin-1-yl}azepane-1-carboxylate], on human M2 receptor, the “M2 EC50” value is “No Response”. Further, at human M4 receptor, the EC50 was determined as 650 nM and the Emax was found to be 53%.

The record behind these values is patent US10030012B2, “Piperidin-1-yl and azepin-1-yl carboxylates as muscarinic M4 receptor agonists” (Heptares Therapeutics Limited, priority 2013, dated 2018).
